Laboratory results from patent publication US5416222A, “3-pyrrolidine methanamines wherein the alpha-carbon is substituted by 1 or 2 lower alkyl groups which are intermediates for pyridone-carboxylic acid derivatives” (Daiichi Seiyaku Co., Ltd., priority 1985, dated 1995).
Converted amounts (≈) assume the structure as drawn.

Experiments:
E. coli, NIHJ = experiment: antimicrobial activity, MIC, standard process of Japan Society of Chemotherapy; assay type: cell-based; conditions: for MIC: Escherichia coli, read-out: minimum growth inhibitory concentration (MIC)
Procedure: (§1) The antimicrobial activities of the compounds of the present invention were determined according to a standard process designated by the Japan Society of Chemotherapy and the minimum growth inhibitory concentrations (MIC) (μg/ml) the compounds were determined.

Pr. mirabilis, IF03849 = experiment: as above; assay type: cell-based; conditions: for MIC: Proteus mirabilis, IF03849, Pr. mirabilis, read-out: minimum growth inhibitory concentration (MIC)
Procedure: as §1

Pr. vulgaris, 3167 = experiment: as above; assay type: cell-based; conditions: for MIC: Proteus vulgaris, 3167, Pr. vulgaris, read-out: minimum growth inhibitory concentration (MIC)
Procedure: as §1

Ps. aeruginosa, 2063 = experiment: as above; assay type: cell-based; conditions: for MIC: Pseudomonas aeruginosa, 2063, Ps. aeruginosa, read-out: minimum growth inhibitory concentration (MIC)
Procedure: as §1

Ps. aeruginosa, 2128 = experiment: as above; assay type: cell-based; conditions: for MIC: Pseudomonas aeruginosa, 2128, Ps. aeruginosa, read-out: minimum growth inhibitory concentration (MIC)
Procedure: as §1

Ps. cepacia, IID1340 = experiment: as above; assay type: cell-based; conditions: for MIC: Burkholderia cepacia, IID1340, Ps. cepacia, read-out: minimum growth inhibitory concentration (MIC)
Procedure: as §1

Ps. maltophilia, IID1275 = experiment: as above; assay type: cell-based; conditions: for MIC: Stenotrophomonas maltophilia, IID1275, Ps. maltophilia, read-out: minimum growth inhibitory concentration (MIC)
Procedure: as §1

S. aureus, 209P = experiment: as above; assay type: cell-based; conditions: for MIC: Staphylococcus aureus, read-out: minimum growth inhibitory concentration (MIC)
Procedure: as §1

S. epidermidis, 56500 = experiment: as above; assay type: cell-based; conditions: for MIC: Staphylococcus epidermidis, 56500, S. epidermidis, read-out: minimum growth inhibitory concentration (MIC)
Procedure: as §1

Ser. marcescens, 13001 = experiment: as above; assay type: cell-based; conditions: for MIC: Serratia marcescens, 13001, Ser. marcescens, read-out: minimum growth inhibitory concentration (MIC)
Procedure: as §1

Sh. flexneri, 2a5503 = experiment: as above; assay type: cell-based; conditions: for MIC: Shigella flexneri, read-out: minimum growth inhibitory concentration (MIC)
Procedure: as §1

[1] = tested on: Str. faecalis, ATCC 19433; experiment: as above; assay type: cell-based; conditions: for MIC: Enterococcus faecalis, ATCC19433, Str. faecalis, read-out: minimum growth inhibitory concentration (MIC)
Procedure: as §1

Str. pyogenes, G-36 = experiment: as above; assay type: cell-based; conditions: for MIC: Streptococcus pyogenes, G36, Str. pyogenes, read-out: minimum growth inhibitory concentration (MIC)
Procedure: as §1

physchem = assay type: physicochemical; conditions: water
Procedure: (§2) The water-solubility and acute toxicity of the compounds of the present invention and the comparative compounds, were measured. The results obtained are shown hereunder. The water-solubility was measured by the following method.
(i) Preparation of standard solution
About 400 μg of the sample to be measured was accurately weighed (the weight was defined as W μg), and 0.1N NaOH solution was added thereto to bring the whole volume to 50 ml. The UV absorbance of a given amount of the solution was measured and the measured absorbance was defined as A1.
(ii) Preparation of sample to be measured
Distilled water was added to the sample to be measured (fine powder) in such amount that the sample was not completely dissolved but suspended, and then the suspension was vigorously agitated at room temperature (between 23° and 26° C.) for 30 minutes. Insoluble matter of the sample was removed therefrom by filtration, after which 3 ml sample of the filtrate (satulated aqueous solution of the sample) was taken. 3 ml of 0.2N NaOH solution was added to the filtrate sample to bring the total volume to 6 ml (i.e. the filtrate was diluted to 50% concentration.) To 1 ml of the resulting solution, 0.1N NaOH solution was further added to bring the total volume to 25 ml […]. In this connection, degree of dilution was occasionally changed, depending on degree of UV absorbance. The UV absorbance of the given amount of the solution was measured and the resulting absorbance was defined to as A2. Where the number of dilution is N, water-solubility (s) is obtained from the following equation: [formula]

mouse = experiment: acute toxicity to mouse; assay type: in vivo; conditions: 200 mg/kg; i.v.
Procedure: as §2
*200 mg/kg; i.v, (deaths/total number) As is obvious from the above

[2] = absorption after oral administration to rats; assay type: in vivo; conditions: rat, 20 mg/kg; for half-life: serum half life, 0.693/Kel; for Cmax / AUC(0-t) at 6 h: serum; for Cmax: 5 rats per group; for AUC(0-t) at 6 h: zero to 6 h, trapezoidal method, read-out: AUC0-6H
Procedure: The compounds of the present invention and the comparative compound were orally given to rats (one group: 5 rats) at a dose of 20 mg/kg to measure the oral absorption of the compounds. The concentration of the compound in the blood of the rat was measured at 15 minutes, 30 minutes, and 1, 2, 3, 4, and 6 hours after administration.
Serum half lives (T1/2) were calculated as 0.693/Kel, where Kel is the elimination rate constant determined by linear regression analysis of the natural logarithm of serum concentration-time data. The area under the serum concentration-versus time curve from zero to 6 h (AUC0-6H) was calculated by the trapezoidal method, The results obtained are as follows: […]

[3] = in words, prior art discussion; cited from earlier work
[4] = tested on: Gram-negative microorganisms; conditions: in words, prior art discussion; cited from earlier work

For `CNC(C)C1CCN(c2c(F)cc3c(=O)c(C(=O)O)cn(C4CC4)c3c2F)C1` (single isomer, unassigned) [Example 7], the “minimum growth inhibitory concentration (MIC)” value (E. coli, NIHJ) was at most 0.05 µg/mL, the “minimum growth inhibitory concentration (MIC)” value (Pr. mirabilis, IF03849; Pr. mirabilis) was at most 0.05 µg/mL and the “minimum growth inhibitory concentration (MIC)” value (Pr. vulgaris, 3167; Pr. vulgaris) was at most 0.05 µg/mL. For the same molecule, the “minimum growth inhibitory concentration (MIC)” value (Ps. aeruginosa, 2063; Ps. aeruginosa) was 0.20 µg/mL, the “minimum growth inhibitory concentration (MIC)” value (Ps. aeruginosa, 2128; Ps. aeruginosa) was 0.10 µg/mL and the “minimum growth inhibitory concentration (MIC)” value (Ps. cepacia, IID1340; Ps. cepacia) was 0.78 µg/mL. For the same molecule, the “minimum growth inhibitory concentration (MIC)” value (Ps. maltophilia, IID1275; Ps. maltophilia) was 0.20 µg/mL, the “minimum growth inhibitory concentration (MIC)” value (S. aureus, 209P) was at most 0.05 µg/mL and the “minimum growth inhibitory concentration (MIC)” value (S. epidermidis, 56500; S. epidermidis) was at most 0.05 µg/mL. For the same molecule, the “minimum growth inhibitory concentration (MIC)” value (Ser. marcescens, 13001; Ser. marcescens) was 0.10 µg/mL, the “minimum growth inhibitory concentration (MIC)” value (Sh. flexneri, 2a5503) was at most 0.05 µg/mL and the “minimum growth inhibitory concentration (MIC)” value ([1]; Str. faecalis) was at most 0.05 µg/mL. For the same molecule, the “minimum growth inhibitory concentration (MIC)” value (Str. pyogenes, G-36; Str. pyogenes) was at most 0.05 µg/mL, the solubility at 0.5 h (physchem) was 710 µg/mL (≈ 1810 µM) and the “Acute toxicity to mouse” value (mouse) was 1/5. The half-life [2] was 2.01 h, the Cmax [2] was 2210 ng/mL and the AUC(0-t) at 6 h [2] was 6310 ng·h/mL.
With `CCNCC1CCN(c2c(F)cc3c(=O)c(C(=O)O)cn(C4CC4)c3c2F)C1` (centres unmarked) [Compound A, 1-cyclopropyl-6,8-difluoro-(3-ethylaminomethyl-1-pyrolidinyl)-1,4-dihydro-4-oxoquinoline-3-carboxylic acid, reference compound] the MIC (E. coli, NIHJ) was at most 0.05 µg/mL, the MIC (Pr. mirabilis, IF03849) was at most 0.05 µg/mL and the MIC (Pr. vulgaris, 3167) was 0.1 µg/mL (≈ 0.255 µM). It also gave an MIC (Ps. aeruginosa, 2063) of 0.39 µg/mL (≈ 0.996 µM), an MIC (Ps. aeruginosa, 2128) of 0.2 µg/mL (≈ 0.511 µM) and an MIC (Ps. cepacia, IID1340) of 0.78 µg/mL (≈ 1.99 µM). For the same molecule, the MIC (Ps. maltophilia, IID1275) was 0.39 µg/mL (≈ 0.996 µM), the MIC (S. aureus, 209P) was at most 0.05 µg/mL and the MIC (S. epidermidis, 56500) was at most 0.05 µg/mL. For the same molecule, the MIC (Ser. marcescens, 13001) was 0.1 µg/mL (≈ 0.255 µM), the MIC (Sh. flexneri, 2a5503) was at most 0.05 µg/mL and the MIC [1] was 0.1 µg/mL (≈ 0.255 µM). For the same molecule, the MIC (Str. pyogenes, G-36) was 0.1 µg/mL (≈ 0.255 µM), the solubility at 0.5 h (physchem) was 40 µg/mL (≈ 102 µM) and the “Acute toxicity to mouse” value (mouse) was 3/5. For the same molecule, the “water-solubility (prior art compounds)” value [3] was “extremely low water-solubility” and the “antimicrobial activity against Gram-negative microorganisms (prior art compounds)” value [4] was “strong antimicrobial activity”.
Molecule `CC(C)(N)C1CCN(c2c(F)cc3c(=O)c(C(=O)O)cn(C4CC4)c3c2F)C1` (centres unmarked) [Example 11, 7-[3-(1-Amino-1-methyl)ethyl-1-pyrrolidinyl]-1-cyclopropyl-6,8-difluoro-1,4-dihydro-4-oxoquinoline-3-carboxylic acid] has an MIC (E. coli, NIHJ) of at most 0.05 µg/mL, an MIC (Pr. mirabilis, IF03849) of 0.1 µg/mL (≈ 0.255 µM) and an MIC (Pr. vulgaris, 3167) of at most 0.05 µg/mL. For the same molecule, the MIC (Ps. aeruginosa, 2063) was 0.78 µg/mL (≈ 1.99 µM), the MIC (Ps. aeruginosa, 2128) was 0.2 µg/mL (≈ 0.511 µM) and the MIC (Ps. cepacia, IID1340) was 0.78 µg/mL (≈ 1.99 µM). The MIC (Ps. maltophilia, IID1275) was 0.1 µg/mL (≈ 0.255 µM), the MIC (S. aureus, 209P) was at most 0.05 µg/mL and the MIC (S. epidermidis, 56500) was at most 0.05 µg/mL. The MIC (Ser. marcescens, 13001) was 0.1 µg/mL (≈ 0.255 µM), the MIC (Sh. flexneri, 2a5503) was at most 0.05 µg/mL and the MIC [1] was at most 0.05 µg/mL. For the same molecule, the MIC (Str. pyogenes, G-36) was at most 0.05 µg/mL, the solubility at 0.5 h (physchem) was 200 µg/mL (≈ 511 µM) and the “Acute toxicity to mouse” value (mouse) was 0/5. The half-life [2] was 2.27 h, the Cmax [2] was 2100 ng/mL and the AUC(0-t) at 6 h [2] was 6430 ng·h/mL.
In the case of `CC(C)(N)C1CCN(c2nc3c(cc2F)c(=O)c(C(=O)O)cn3C2CC2)C1` (centres unmarked) [Example 13, 7-[3-(1-Amino-1-methyl)ethyl-1-pyrrolidinyl]-1-cyclo-propyl-6-difluoro-1,4-dihydro-4-oxo-1,8-naphthyridine-3-carboxylic acid], the MIC (E. coli, NIHJ) is reported as at most 0.05 µg/mL, the MIC (Pr. mirabilis, IF03849) is reported as 0.39 µg/mL (≈ 1.04 µM) and the MIC (Pr. vulgaris, 3167) is reported as 0.1 µg/mL (≈ 0.267 µM). It also gave an MIC (Ps. aeruginosa, 2063) of 0.39 µg/mL (≈ 1.04 µM), an MIC (Ps. aeruginosa, 2128) of 0.2 µg/mL (≈ 0.534 µM) and an MIC (Ps. cepacia, IID1340) of 0.78 µg/mL (≈ 2.08 µM). For the same molecule, the MIC (Ps. maltophilia, IID1275) was 0.2 µg/mL (≈ 0.534 µM), the MIC (S. aureus, 209P) was at most 0.05 µg/mL and the MIC (S. epidermidis, 56500) was at most 0.05 µg/mL. It also gave an MIC (Ser. marcescens, 13001) of 0.2 µg/mL (≈ 0.534 µM), an MIC (Sh. flexneri, 2a5503) of at most 0.05 µg/mL and an MIC [1] of 0.2 µg/mL (≈ 0.534 µM). The MIC (Str. pyogenes, G-36) was 0.1 µg/mL (≈ 0.267 µM), the solubility at 0.5 h (physchem) was 2000 µg/mL (≈ 5340 µM) and the “Acute toxicity to mouse” value (mouse) was 1/5. The half-life [2] was 2.41 h, the Cmax [2] was 2140 ng/mL and the AUC(0-t) at 6 h [2] was 7950 ng·h/mL.
